# Reference: patent US20240239771A1, “BACTERIAL EFFLUX PUMP INHIBITORS” (priority 2020, published 2024)
# Structures can show the parent of a compound that is named as a salt. Where two headings read alike, the source gives them in different places.
# Key:
# [1] = tested on: Pseudomonas aeruginosa ATCC 27853; test: Intrinsic MIC assay (CLSI broth microdilution); assay type: cell-based
# Description: MIC assays were conducted in accordance with Clinical and Laboratory Standards Institute (CLSI) guidelines for broth microdilution. A 96-well plate containing cation-adjusted Mueller-Hinton (CAMH broth with 2-fold serial dilution of compounds was inoculated with log-phase bacterial at 5×10^5 CFU/mL. The final volume in each well was 100 μL. Each compound was tested in duplicate. The microtiter plates were incubated in an aerobic environment for 18 hours at 37° C. Then the bacterial growth was tested by reading the plate with a VersaMax plate reader (Molecular Devices, Inc.) at 600 nm. The MIC was defined as the lowest compound concentration that inhibited 90% of bacteria growth.
# The intrinsic MIC of the experimental EPIs was tested with the method described. The 2-fold serial dilution begins with 100 μg/mL of tested compound in the first column of the 96-well plates. The following Gram-negative bacterial strain was included in these assays: Pseudomonas aeruginosa ATCC 27853.
# [2] = tested on: Pseudomonas aeruginosa ATCC 27853; test: Standard EPI assay: MIC of test antibiotic in absence and presence of EPI; assay type: cell-based; settings: for Enhanced Antibiotic's Activity (fold increase), Ceftazidime: ceftazidime with compound at 6.25 μg/mL, relative to MIC without EPI (2 μg/mL); for Enhanced Antibiotic's Activity (fold increase), Doxycycline: doxycycline with compound at 6.25 μg/mL, relative to MIC without EPI (32 μg/mL); for Enhanced Antibiotic's Activity (fold increase), Levofloxacin: levofloxacin with compound at 6.25 μg/mL, relative to MIC without EPI (1 μg/mL); for MIC of antibiotic in the absence of EPI: antibiotic alone, P. aeruginosa ATCC 27853
# Description: The EPI assay for the purposes of these studies represents a MIC assay in which the MIC of the antibiotic against the bacteria is tested in the presence of an experimental efflux pump inhibitor (EPI). The highest concentration of the EPI present in the assay typically is ½ of the intrinsic MIC of the compound. If the intrinsic MIC of the EPI is greater than 100 μg/mL, the EPI assay was tested with 50 μg/mL. Using serial dilutions of the EPI, its enhancement of antibiotic activity was then evaluated. The relative EPI activity was decided by comparing the MIC of the antibiotic in the presence of the EPI compound with the intrinsic MIC of the antibiotic alone.
# The impact of the EPIs on the MIC values of three test antibiotics (levofloxacin, ceftazidime and doxycycline) against P. aeruginosa ATCC 27853 were evaluated using our standard EPI assay. All three antibiotics levofloxacin, ceftazidime and doxycycline are known substrates of efflux pumps in P. aeruginosa, and are thus well-suited to be test antibiotics to assay for EPI activity.
# In our standard EPI assay, the MIC of the test antibiotic is determined in the absence and presence of sub-inhibitory concentrations of the EPI. […] The MIC of levofloxacin against P. aeruginosa ATCC 27853 in the absence of EPI is 1 μg/mL. […] Similarly, the MIC of ceftazidime against P. aeruginosa ATCC 27853 in the absence of EPI is 2 μg/mL. In the presence of 6.25 μg/mL of the Example 4, the MIC of ceftazidime was reduced to 0.5 μg/mL, a 4-fold reduction. […] For all the examples in Table 1, the potentiation activities are determined at 6.25 μg/mL.
# [3] = ATCC27853, read-out: Intrinsic MIC of Compound
MIC of antibiotic in the absence of EPI [2],"MIC ([1]; ATCC27853, P. aeruginosa ATCC 27853, compound alone, read-out: Intrinsic MIC of Compound)",SMILES,"MIC [1, 3]","Enhanced Antibiotic's Activity (fold increase), Ceftazidime [2]","Enhanced Antibiotic's Activity (fold increase), Doxycycline [2]","Enhanced Antibiotic's Activity (fold increase), Levofloxacin [2]"
–,–,"NCC(O)C[C@H](N)CNC(=O)c1[nH]c2ccc(F)cc2c1-c1ccccc1Cl (stereo partly drawn) [Example 8, 3-(2-chlorophenyl)-N-((2S)-2,5-diamino-4-hydroxypentyl)-5-fluoro-1H-indole-2-carboxamide hydrogen chloride salt]",> 100 µg/mL,2 fold,16 fold,16 fold
1 µg/mL,–,"C[C@H]1COc2c(N3CCN(C)CC3)c(F)cc3c(=O)c(C(=O)O)cn1c23 [levofloxacin, Levofloxacin, reference compound]",–,–,–,–
–,–,"NC[C@H]1CN[C@H](CNC(=O)c2[nH]c3ccccc3c2-c2ccc(F)cc2)[C@@H]1O [Example 26, N-(((2R,3R,4S)-4-(aminomethyl)-3-hydroxypyrrolidin-2-yl)methyl)-3-(4-fluorophenyl)-1H-indole-2-carboxamide hydrogen chloride salt]",> 100 µg/mL,2 fold,32 fold,16 fold
–,–,"NCCOC[C@H](N)CNC(=O)c1cc2ccc(-c3ccccc3)cc2[nH]1 [Example 32, (R)—N-(2-amino-3-(2-aminoethoxy)propyl)-6-phenyl-1H-indole-2-carboxamide hydrogen chloride salt]",> 200 µg/mL,–,–,4 fold
–,–,"NC[C@@H](O)C[C@H](N)CNC(=O)c1cc2ccc(-c3ccc(F)cc3)cc2[nH]1 [Example 30, 6-(4-fluorophenyl)-N-((2S)-2,5-diamino-4-hydroxypentyl)-1H-indole-2-carboxamide hydrogen chloride salt]",50 µg/mL,–,–,16 fold
–,–,"NCC1(O)CN[C@H](CNC(=O)c2[nH]c3ccc(F)cc3c2-c2ccccc2Cl)C1 (stereo partly drawn) [Example 27, N-(((2S)-4-(aminomethyl)-4-hydroxypyrrolidin-2-yl)methyl)-3-(2-chlorophenyl)-5-fluoro-1H-indole-2-carboxamide hydrogen chloride salt]",> 100 µg/mL,–,–,1 (1) fold
–,–,"NCC(O)C[C@H](N)CNC(=O)c1[nH]c2ccccc2c1-c1ccccc1 (stereo partly drawn) [Example 12, N-((2S)-2,5-diamino-4-hydroxypentyl)-3-phenyl-1H-indole-2-carboxamide hydrogen chloride salt]",> 100 µg/mL,2 fold,32 fold,16 fold
–,–,"N#Cc1ccc(-c2c(C(=O)NC[C@@H](N)CC(O)CN)[nH]c3ccc(F)cc23)cc1 (stereo partly drawn) [Example 9, 3-(4-cyanophenyl)-N-((2S)-2,5-diamino-4-hydroxypentyl)-5-fluoro-1H-indole-2-carboxamide hydrogen chloride salt]",> 100 µg/mL,2 fold,32 fold,32 fold
–,–,"NCC(O)C[C@H](N)CNC(=O)c1[nH]c2ccc(F)cc2c1-c1ccccc1 (stereo partly drawn) [Example 13, N-((2S)-2,5-diamino-4-hydroxypentyl)-5-fluoro-3-phenyl-1H-indole-2-carboxamide hydrogen chloride salt]",> 100 µg/mL,2 fold,32 fold,32 fold
–,–,"NCC(CO)C[C@@H](N)CNC(=O)c1[nH]c2ccccc2c1-c1ccc(F)cc1 (stereo partly drawn) [Example 16, N-((2R)-2,5-diamino-4-(hydroxymethyl)pentyl)-3-(4-fluorophenyl)-1H-indole-2-carboxamide hydrogen chloride salt]",> 100 µg/mL,2 fold,32 fold,16 fold
–,–,"NCC(O)C[C@H](N)CNC(=O)c1[nH]c2ccccc2c1-c1ccc(F)cc1 (stereo partly drawn) [Example 10, 3-(4-fluorophenyl)-N-((2S)-2,5-diamino-4-hydroxypentyl)-1H-indole-2-carboxamide hydrogen chloride salt]",100 µg/mL,4 fold,32 fold,16 fold
–,100 µg/mL,"NCC(O)[C@H](N)CNC(=O)c1[nH]c2ccccc2c1C1CCCC1 (stereo partly drawn) [Example 36, 3-cyclopentyl-N-((2R)-2,4-diamino-3-hydroxybutyl)-1H-indole-2-carboxamide]",–,2 fold,32 fold,8 fold
–,–,"NC[C@H]1CN[C@H](CNC(=O)c2[nH]c3ccccc3c2-c2ccc(F)cc2)[C@H]1O [Example 23, N-(((2R,3S,4S)-4-(aminomethyl)-3-hydroxypyrrolidin-2-yl)methyl)-3-(4-fluorophenyl)-1H-indole-2-carboxamide hydrogen chloride salt]",> 100 µg/mL,2 fold,16 fold,8 fold
–,–,"NCC(O)C[C@H](N)CNC(=O)c1[nH]c2ccccc2c1Sc1cccc(F)c1 (stereo partly drawn) [Example 29, N-((2S)-2,5-diamino-4-hydroxypentyl)-3-((3-fluorophenyl)thio)-1H-indole-2-carboxamide hydrogen chloride salt]",200 µg/mL,2 fold,64 fold,32 fold
–,–,"NCCOC[C@H](N)CNC(=O)c1cc2ccc(-c3ccc(F)cc3)cc2[nH]1 [Example 31, (R)—N-(2-amino-3-(2-aminoethoxy)propyl)-6-(4-fluorophenyl)-1H-indole-2-carboxamide hydrogen chloride salt]",> 200 µg/mL,4 fold,32 fold,8 fold
–,–,"NCCC(O)[C@@H](N)CNC(=O)c1[nH]c2ccc(F)cc2c1C1CCCCC1 (stereo partly drawn) [Example 5, 3-cyclohexyl-N-((2S)-2,5-diamino-3-hydroxypentyl)-5-fluoro-1H-indole-2-carboxamide hydrogen chloride salt]",50 µg/mL,16 fold,32 fold,32 fold
–,–,"NCCOC[C@H](N)CNC(=O)c1[nH]c2ccccc2c1-c1ccccc1 [Example 21, (R)—N-(2-amino-3-(2-aminoethoxy)propyl)-3-phenyl-1H-indole-2-carboxamide hydrogen chloride salt]",> 100 µg/mL,1 fold,16 fold,4 fold
–,–,"NCC(O)C[C@H](N)CNC(=O)c1[nH]c2ccccc2c1C1CCCCC1 (stereo partly drawn) [Example 15, 3-cyclohexyl-N-((2S)-2,5-diamino-4-hydroxypentyl)-1H-indole-2-carboxamide hydrogen chloride salt]",50 µg/mL,4 fold,32 fold,32 fold
2 µg/mL,–,"CC(C)(O/N=C(\C(=O)N[C@@H]1C(=O)N2C(C(=O)[O-])=C(C[n+]3ccccc3)CS[C@H]12)c1csc(N)n1)C(=O)O [ceftazidime, Ceftazidime, reference compound]",–,–,–,–
32 µg/mL,–,"C[C@H]1c2cccc(O)c2C(=O)C2=C(O)[C@]3(O)C(=O)C(C(N)=O)=C(O)[C@@H](N(C)C)[C@@H]3[C@@H](O)[C@@H]21 [doxycycline, Doxycycline, reference compound]",–,–,–,–
